From patent publication US8247211B2, “Glycopeptide antibiotics” (American Cyanamid Company, priority 2001, dated 2012)
In brackets after ≈: the same amount, converted by molar mass.

What was measured:
[1] = test system: Staphylococcus aureus-SMITH (GC 4543); experiment: Acute lethal infection in mice (ED50); type: in vivo; conditions: female CD-1 mice, intraperitoneal challenge, intravenous dose 30 min. after infection, 7 day survival ratios
How it was run: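 IP bacterial challenge, female CD-1 mice; inoculum lethal to untreated controls in 24-48 hr. IV dosing in saline or 5% dextrose 30 min post-infection, 5 mice/dose. ED50 from 7-day survival, 3 tests pooled.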

[2] = test system: Staphylococcus sp.; experiment: In vitro antibacterial evaluation: minimum inhibitory concentration (MIC), broth dilution method; type: cell-based; conditions: for MIC Staphylococcus aureus (ATCC 29213) / MIC Staphylococcus aureus (GC 1131) / MIC Staphylococcus aureus (GC 3051) / MIC Staphylococcus aureus (GC 3053) / MIC Staphylococcus aureus (GC 4541) / MIC Staphylococcus aureus (GC 4542) / MIC Staphylococcus aureus (GC 4544) / MIC Staphylococcus aureus (GC 4545): broth dilution, 18 hours at 35° C.
How it was run: (§1)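 Using Muller-Hinton II […] and an inoculum of 5×10^5 CFU/mL, antibiotic dilutions from 64 down to 0.06 μg/mL were tested following NCCLS M7-A2. The MIC is the lowest concentration inhibiting growth, including in methicillin-, penicillin- or vancomycin-resistant clinical isolates.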

[3] = test system: Streptococcus sp.; experiment: as above; type: cell-based
How it was run: as §1

[4] = test system: Enterococcus sp.; experiment: as above; type: cell-based
How it was run: as §1

[5] = test system: Escherichia coli; experiment: as above; type: cell-based
How it was run: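 Inoculum: 5×10^5 CFU/mL. Range: 64-0.06 μg/mL. Medium: Muller-Hinton II […]; NCCLS M7-A2 broth dilution. Endpoint: lowest concentration inhibiting growth. Strains include methicillin-, penicillin- and/or vancomycin-resistant clinical isolates.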

[6] = broth dilution, inoculum 5×10^5 CFU/mL, 18 hours at 35° C.

## COc1ccc(Oc2cccc(C3OCC4OC(OC5C(CO)OC(Oc6ccc(CC7NC(=O)C(C(C)c8ccccc8)NC(=O)CNC(=O)C(CO)NC(=O)C(C(O)C8CNC(=N)N8C8OC(CO)C(O)C(O)C8O)NC(=O)C(C(O)C8CNC(=N)N8)NC7=O)cc6)C(O)C5O)C(O)C(O)C4O3)c2)cc1 (stereo not shown) [Example 180]
[1]
  median effective dose (ED50), Staphylococcus aureus-SMITH (GC 4543): 0.05 mg/kg
[2]; 5×10^5 CFU/mL
  MIC Staphylococcus aureus (ATCC 29213): 2 mg/L (≈ 1.33 µM)
  MIC Staphylococcus aureus (GC 1131): 2 mg/L (≈ 1.33 µM)
  MIC Staphylococcus aureus (GC 3051): 1 mg/L (≈ 0.664 µM)
  MIC Staphylococcus aureus (GC 3053): 2 mg/L (≈ 1.33 µM)
  MIC Staphylococcus aureus (GC 4541): 2 mg/L (≈ 1.33 µM)
  MIC Staphylococcus aureus (GC 4542): 2 mg/L (≈ 1.33 µM)
  MIC Staphylococcus aureus (GC 4544): 2 mg/L (≈ 1.33 µM)
  MIC Staphylococcus aureus (GC 4545): 2 mg/L (≈ 1.33 µM)
[2]; strain ATCC 29213
  MIC Staphylococcus aureus (ATCC 29213): 2 mg/L (≈ 1.33 µM)
[2]; strain GC 1131
  MIC Staphylococcus aureus (GC 1131): 2 mg/L (≈ 1.33 µM)
[2]; strain GC 3051
  MIC Staphylococcus aureus (GC 3051): 1 mg/L (≈ 0.664 µM)
[2]; strain GC 3053
  MIC Staphylococcus aureus (GC 3053): 2 mg/L (≈ 1.33 µM)
[2]; strain GC 4541
  MIC Staphylococcus aureus (GC 4541): 2 mg/L (≈ 1.33 µM)
[2]; strain GC 4542
  MIC Staphylococcus aureus (GC 4542): 2 mg/L (≈ 1.33 µM)
[2]; strain GC 4543
  MIC Staphylococcus aureus-SMITH (GC 4543): 2 mg/L (≈ 1.33 µM)
[2]; strain GC 4544
  MIC Staphylococcus aureus (GC 4544): 2 mg/L (≈ 1.33 µM)
[2]; strain GC 4545
  MIC Staphylococcus aureus (GC 4545): 2 mg/L (≈ 1.33 µM)
[2]; strain GC 4546
  MIC Staphylococcus haemolyticus (GC 4546): 2 mg/L (≈ 1.33 µM)
[2]; strain GC 4547
  MIC Coagulase Negative Staphylococcus (GC 4547): 2 mg/L (≈ 1.33 µM)
[2]; strain GC 4548
  MIC Coagulase Negative Staphylococcus (GC 4548): 1 mg/L (≈ 0.664 µM)
[2]; strain GC 4549
  MIC Coagulase Negative Staphylococcus (GC 4549): 1 mg/L (≈ 0.664 µM)
[2]; strain GC 4551
  MIC Coagulase Negative Staphylococcus (GC 4551): 1 mg/L (≈ 0.664 µM)
[2]; strain GC 6257
  MIC Coagulase Negative Staphylococcus (GC 6257): 0.5 mg/L (≈ 0.332 µM)
[3]; [6]
  MIC Streptococcus agalactiae (GC 4564): <0.06 mg/L
  MIC Streptococcus pneumoniae (ATCC 6301): <0.06 mg/L
  MIC Streptococcus pneumoniae (GC 1894): <0.06 mg/L
  MIC Streptococcus pneumoniae (GC 4565): <0.06 mg/L
  MIC Streptococcus pyogenes (GC 4563): <0.06 mg/L
[3]; strain ATCC 6301
  MIC Streptococcus pneumoniae (ATCC 6301): <0.06 mg/L
[3]; strain GC 1894
  MIC Streptococcus pneumoniae (GC 1894): <0.06 mg/L
[3]; strain GC 4563
  MIC Streptococcus pyogenes (GC 4563): <0.06 mg/L
[3]; strain GC 4564
  MIC Streptococcus agalactiae (GC 4564): <0.06 mg/L
[3]; strain GC 4565
  MIC Streptococcus pneumoniae (GC 4565): <0.06 mg/L
[4]; [6]
  MIC Enterococcus avium (GC 4558): 2 mg/L (≈ 1.33 µM)
  MIC Enterococcus faecalis (ATCC 29212): 4 mg/L (≈ 2.66 µM)
  MIC Enterococcus faecalis (GC 2242): 4 mg/L (≈ 2.66 µM)
  MIC Enterococcus faecalis (GC 2691): 2 mg/L (≈ 1.33 µM)
  MIC Enterococcus faecalis (GC 3059): 2 mg/L (≈ 1.33 µM)
  MIC Enterococcus faecalis (GC 4552): 2 mg/L (≈ 1.33 µM)
  MIC Enterococcus faecalis (GC 4553): 2 mg/L (≈ 1.33 µM)
  MIC Enterococcus faecalis (GC 4554): 2 mg/L (≈ 1.33 µM)
  MIC Enterococcus faecalis (GC 6189): 2 mg/L (≈ 1.33 µM)
  MIC Enterococcus faecium (GC 2243): 2 mg/L (≈ 1.33 µM)
  MIC Enterococcus faecium (GC 4556): 2 mg/L (≈ 1.33 µM)
  MIC Enterococcus faecium (GC 4557): 2 mg/L (≈ 1.33 µM)
[4]; strain ATCC 29212
  MIC Enterococcus faecalis (ATCC 29212): 4 mg/L (≈ 2.66 µM)
[4]; strain GC 2242
  MIC Enterococcus faecalis (GC 2242): 4 mg/L (≈ 2.66 µM)
[4]; strain GC 2243
  MIC Enterococcus faecium (GC 2243): 2 mg/L (≈ 1.33 µM)
[4]; strain GC 2691
  MIC Enterococcus faecalis (GC 2691): 2 mg/L (≈ 1.33 µM)
[4]; strain GC 3059
  MIC Enterococcus faecalis (GC 3059): 2 mg/L (≈ 1.33 µM)
[4]; strain GC 4552
  MIC Enterococcus faecalis (GC 4552): 2 mg/L (≈ 1.33 µM)
[4]; strain GC 4553
  MIC Enterococcus faecalis (GC 4553): 2 mg/L (≈ 1.33 µM)
[4]; strain GC 4554
  MIC Enterococcus faecalis (GC 4554): 2 mg/L (≈ 1.33 µM)
[4]; strain GC 4556
  MIC Enterococcus faecium (GC 4556): 2 mg/L (≈ 1.33 µM)
[4]; strain GC 4557
  MIC Enterococcus faecium (GC 4557): 2 mg/L (≈ 1.33 µM)
[4]; strain GC 4558
  MIC Enterococcus avium (GC 4558): 2 mg/L (≈ 1.33 µM)
[4]; strain GC 6189
  MIC Enterococcus faecalis (GC 6189): 2 mg/L (≈ 1.33 µM)
[5]; strain ATCC 25922
  MIC Escherichia coli (ATCC 25922): >64 mg/L
[5]; strain GC 4559
  MIC Escherichia coli (GC 4559): 64 mg/L (≈ 42.5 µM)
[5]; strain GC 4560
  MIC Escherichi coli (GC 4560): 2 mg/L (≈ 1.33 µM)
